PubChem BioAssay AID1845228

settings: pampa; 60.0 min; 50.0 µM

SMILES | Papp
O=C(CBr)N1CC([N+](=O)[O-])([N+](=O)[O-])C1 | < 1 ×10⁻⁶ cm/s
Cc1ccc(=O)n(-c2ccccc2)c1 | 14 ×10⁻⁶ cm/s
Nc1ccc(-c2ccc3ncc4ccc(=O)n(-c5cccc(C(F)(F)F)c5)c4c3c2)cn1 | > 300 ×10⁻⁶ cm/s
CCCN(CCC)C1CCc2cccc(O)c2C1 (centres undefined) | 88 ×10⁻⁶ cm/s
O=C(/C=C\n1cnc(-c2cc(C(F)(F)F)cc(C(F)(F)F)c2)n1)N1CC(F)(F)C1 | 121 ×10⁻⁶ cm/s
N=c1c2c(-c3ccccc3)cn(Cc3ccccc3)c2ncn1CCO | 113 ×10⁻⁶ cm/s
CN(C)CCn1nnnc1SCC1=C(C(=O)O)N2C(=O)[C@@H](NC(=O)Cc3csc(N)n3)[C@H]2SC1 | 6 ×10⁻⁶ cm/s
CC(=CCCC1=CCC(C2=CC(=O)OC2O)OC1O)CCC1=C(C)CCCC1(C)C (centres undefined) | 9.8 ×10⁻⁶ cm/s
Cc1[nH]c2ccccc2c1C1(O)C(=O)N(Cc2ccccc2)c2ccc(Cl)cc21 (centres undefined) | > 300 ×10⁻⁶ cm/s
Cn1cnc2c(F)c(Nc3ccc(Br)cc3F)c(C(=O)NOCCO)cc21 | 19.3 ×10⁻⁶ cm/s
CC(=O)c1cc(C(=O)N[C@@H](C)Cn2ccc(-c3ccc(C#N)c(Cl)c3)n2)[nH]n1 | 164 ×10⁻⁶ cm/s
CC1CN(c2cc3c(cc2F)c(=O)c(C(=O)O)cn3-c2ccc(F)cc2F)CCN1 (centres undefined) | 5 ×10⁻⁶ cm/s
NC1CCN(C(=O)C2CCCN(c3nc(-c4ccccc4)nc4c3CCC4)C2)CC1 (centres undefined) | 179 ×10⁻⁶ cm/s
CCC[C@@H](NC(=O)N1C(=O)C(CC)(CC)[C@@H]1Oc1ccc(C(=O)N2CCN(C)CC2)cc1)c1ccc2c(c1)OCO2 | > 300 ×10⁻⁶ cm/s
N=c1c2c(-c3ccccc3)c(-c3ccccc3)n(CCc3ccccc3)c2ncn1C1CCN(Cc2ccccc2)CC1 | 14 ×10⁻⁶ cm/s
Cn1nnnc1Sc1ncnc2scc(-c3cccc(C#N)c3)c12 | 76 ×10⁻⁶ cm/s
C=CC1=C(C(=O)O)N2C(=O)[C@@H](NC(=O)/C(=N\OCC(=O)O)c3csc(N)n3)[C@H]2SC1 | 2 ×10⁻⁶ cm/s
CO/S(=N\S(=O)(=O)c1ccc(Cl)cc1)c1ccc([N+](=O)[O-])cc1 (centres undefined) | 4 ×10⁻⁶ cm/s
Nc1ccc(/C=C/C(=O)NCc2cc3cc(-c4ccc(C(=O)N5CCC(F)(F)CC5)cc4)cc(-c4ccc(F)cc4)c3o2)cn1 | < 1 ×10⁻⁶ cm/s
NCCCNCCCCNC(=O)C(O)NC(=O)CCCCCCN=C(N)N (centres undefined) | 38 ×10⁻⁶ cm/s
C[C@H](Nc1nc(N[C@H](C)C(F)(F)F)nc(-c2cccc(Cl)n2)n1)C(F)(F)F | 122 ×10⁻⁶ cm/s
CCN(CC)CCNc1ccc2ncn3c4ccc(O)cc4c(=O)c1c23 | 17 ×10⁻⁶ cm/s
CO[C@@]1(NC(=O)C2SC(=C(C(N)=O)C(=O)O)S2)C(=O)N2C(C(=O)O)=C(CSc3nnnn3C)CS[C@@H]21 (some centres undefined) | < 1 ×10⁻⁶ cm/s
Cc1oc(=O)oc1COC(=O)N1CC[C@@H](N2CC/C(=C\C3=C(C(=O)O)N4C(=O)[C@@H](NC(=O)/C(=N/O)c5nsc(N)n5)[C@H]4SC3)C2=O)C1 | 3 ×10⁻⁶ cm/s

SMILES | Papp
CC(=O)Nc1ccc(OC(=O)c2ccccc2OC(C)=O)cc1 | 27 ×10⁻⁶ cm/s
COc1cc(C(C)C)c(Oc2cnc(NC(CO)CO)nc2N)cc1I | 103 ×10⁻⁶ cm/s
CSCC[C@H](NC(=O)[C@H](Cc1ccccc1)NC(=O)CNC(=O)CNC(=O)[C@@H](N)Cc1ccc(O)cc1)C(=O)O | < 1 ×10⁻⁶ cm/s
NC(=O)[C@H](Cc1ccccc1)NC(=O)[C@H](Cc1ccccc1)NC(=O)[C@@H]1CCCN1C(=O)[C@@H](N)Cc1ccc(O)cc1 | < 1 ×10⁻⁶ cm/s
CC(=O)NC[C@H]1CN(c2ccc(N3CCOCC3)c(F)c2)C(=O)O1 | 5 ×10⁻⁶ cm/s
NC(=O)c1cccc(-c2cc(Nc3ccc(OC(F)(F)F)cc3)ncn2)c1 | 94.4 ×10⁻⁶ cm/s
CC1=C(/C=C/C(C)=C/C=C/C(C)=C/C(=O)O)C(C)(C)CCC1 | < 1 ×10⁻⁶ cm/s
COc1cc(OC)c(OC)cc1CN1CCc2nc(N3CCN(c4ccccc4F)CC3)ncc2C1 | > 300 ×10⁻⁶ cm/s
N=c1c2c(-c3ccccc3)c(-c3ccccc3)n(Cc3ccccc3)c2ncn1C1CCC(O)CC1 (centres undefined) | 150 ×10⁻⁶ cm/s
COC(=O)c1cccc(Cn2cnc3c(c(-c4ccccc4)c(-c4ccccc4)n3CCc3ccccc3)c2=N)c1 | 27 ×10⁻⁶ cm/s
N=c1c2c(-c3ccccc3)cn(Cc3ccccc3)c2ncn1CCN | 131 ×10⁻⁶ cm/s
O=C(NN1CCCCC1)c1nn(-c2ccc(Cl)cc2Cl)c(-c2ccc(C#Cc3ccc(C(F)(F)F)cc3)s2)c1CNS(=O)(=O)N1CCCC1 | 4 ×10⁻⁶ cm/s
O=C(Nc1ccccc1)N1CCC(Cc2cnc3ccccc3c2)CC1 | > 300 ×10⁻⁶ cm/s
CN(C)C(=O)NC1CCC(CCN2CCN(c3cccc(Cl)c3Cl)CC2)CC1 (centres undefined) | 100 ×10⁻⁶ cm/s
NC(=O)NCC(=O)N[C@H]1CC[C@H](Nc2nccc(-c3ccncc3)n2)C1 | < 1 ×10⁻⁶ cm/s
CN1CCN(C(=O)Cc2c[nH]c3ncc(-c4ccccc4Oc4ccccc4)cc23)CC1 | 299 ×10⁻⁶ cm/s
Cc1c2ccncc2c(C)c2c1[nH]c1ccccc12 | > 300 ×10⁻⁶ cm/s
CCOC(=N)c1nc2ccc3ncnc(Nc4cc(F)c(F)cc4Cl)c3c2s1 | 1.2 ×10⁻⁶ cm/s
CC(=O)NCCNC(=O)c1ccc(-c2ncc3cnc(-c4cccc(F)c4)cn23)cc1 | 11 ×10⁻⁶ cm/s
CN(C(=O)/C=C/c1ccoc1)[C@@H]1CC[C@@]2(O)[C@H]3Cc4ccc(O)c5c4[C@@]2(CCN3CC2CC2)[C@H]1O5 | 13 ×10⁻⁶ cm/s
N=c1c2c(-c3ccccc3)c(-c3ccccc3)n(Cc3ccccc3)c2ncn1CCN | 78 ×10⁻⁶ cm/s
O=C(CCl)Nc1cccc(NC2=NS(=O)(=O)c3ccccc32)c1 | 5.9 ×10⁻⁶ cm/s
N=c1c2c(-c3ccccc3)cn(Cc3ccccc3)c2ncn1CCCCCO | 89 ×10⁻⁶ cm/s
CC(C)CN(CC(=O)N(CCCN1CCCC1=O)CC(N)=O)C(=O)CNCCc1ccccc1F | < 1 ×10⁻⁶ cm/s

SMILES | Papp
NC(=O)c1ccc(-c2ncc3cnc(-c4cccc(F)c4)cn23)cc1 | 242 ×10⁻⁶ cm/s
Nc1ncnc2c1ncn2[C@@H]1O[C@H](CSCC[C@H](N)C(=O)O)[C@@H](O)[C@H]1O | < 1 ×10⁻⁶ cm/s
CC[C@@H]1C[C@]1(NC(=O)[C@@H]1C[C@@H]2CN1C(=O)[C@H](C(C)(C)C)NC(=O)OCC(C)(C)CCCCc1cccc3c1CN(C3)C(=O)O2)C(=O)NS(=O)(=O)C1CC1 | 10 ×10⁻⁶ cm/s
O=C(NCCO)c1cc(C(=O)NCCO)cc(C(=O)NCCO)c1 | < 1 ×10⁻⁶ cm/s
CNCCC=C1c2ccccc2CCc2ccccc21 | 253 ×10⁻⁶ cm/s
O=C(c1ccc(-c2ncc3cnc(-c4ccccc4)cn23)cc1)N1CCS(=O)(=O)CC1 | 20 ×10⁻⁶ cm/s
CCCCC/C=C/C(=O)CCc1ccc(O)c(OC)c1 | 187 ×10⁻⁶ cm/s
O=C(NCC1(N2CCN(c3ccccc3)CC2)CCOCC1)c1cccnc1Sc1ccccc1 | 207 ×10⁻⁶ cm/s
O=C1/C(=C\c2ccccc2)C[C@@]2(O)[C@H]3Cc4ccc(O)c5c4[C@@]2(CCN3CC2CC2)[C@@H]1O5 | 158 ×10⁻⁶ cm/s
CN(C)CCn1cnc2c(c(-c3ccccc3)c(-c3ccccc3)n2CCc2ccccc2)c1=N | 148 ×10⁻⁶ cm/s
Cc1onc(-c2c(F)cccc2Cl)c1C(=O)N[C@@H]1C(=O)N2[C@@H]1SC(C)(C)[C@@H]2C(=O)O | 28 ×10⁻⁶ cm/s
Cc1onc(-c2ccccc2)c1C(=O)N[C@@H]1C(=O)N2[C@@H]1SC(C)(C)[C@@H]2C(=O)O | 8 ×10⁻⁶ cm/s
NNC(=O)c1ccncc1 | 3 ×10⁻⁶ cm/s
O=S(=O)(Nc1cc(Cl)c(Oc2cnc3ccccc3c2)c(Cl)c1)c1ccc(Cl)cc1Cl | 24 ×10⁻⁶ cm/s
O=C1NC(=O)C(c2ccccc2)(c2ccccc2)N1 | 42 ×10⁻⁶ cm/s
O=C(NC1CCC(O)CC1)c1ccc(-c2ncc3cnc(-c4cccc(F)c4)cn23)cc1 (centres undefined) | 59 ×10⁻⁶ cm/s
CCOC(=O)c1ccc(NC(=O)c2sc3nc4c(cc3c2N)N2CCC4CC2)cc1 | 255 ×10⁻⁶ cm/s
CCN1CCN(C(=O)N[C@@H](C(=O)N[C@]2(OC)C(=O)N3C(C(=O)O)=C(CSc4nnnn4C)CS[C@@H]32)[C@H](C)O)C(=O)C1=O | < 1 ×10⁻⁶ cm/s
C=CC1=C(C(=O)O)N2C(=O)[C@@H](NC(=O)/C(=N/OCC(=O)O)c3csc(N)n3)[C@H]2SC1 | 4 ×10⁻⁶ cm/s
OC[C@H]1O[C@@H](n2cnc3c(NCc4ccc(O)cc4)ncnc32)[C@H](O)[C@@H]1O | < 1 ×10⁻⁶ cm/s
COC(=O)[C@]12CCC(C)(C)C[C@@H]1[C@@H]1C(=O)C=C3[C@@]4(C)C=C(C#N)C(=O)C(C)(C)[C@@H]4CC[C@@]3(C)[C@]1(C)CC2 | 8 ×10⁻⁶ cm/s
C=CCNC1=C2C[C@@H](C)C[C@H](OC)[C@H](O)[C@@H](C)/C=C(\C)[C@H](OC(N)=O)[C@@H](OC)/C=C\C=C(/C)C(=O)NC(=CC1=O)C2=O | 73 ×10⁻⁶ cm/s
COc1ccc(N(C)c2nc(C)nc3ccccc23)cc1 | 220 ×10⁻⁶ cm/s
CCO[C@@H]1OC(=O)C[C@@H]1NC(=O)[C@@H]1CCCN1C(=O)[C@@H](NC(=O)c1ccc(N)c(Cl)c1)C(C)(C)C | 4 ×10⁻⁶ cm/s

SMILES | Papp
O=C(O)C[C@H]1CCc2c1[nH]c1ccc(OCc3ccc(C4CCCC4)c(C(F)(F)F)c3)cc21 | 46 ×10⁻⁶ cm/s
N=c1c2c(-c3ccccc3)c(-c3ccccc3)n(CCc3ccccc3)c2ncn1CCCCCO | 183 ×10⁻⁶ cm/s
C[C@]12CCCN1CC1=NNC(=O)c3cc(F)cc4[nH]c2c1c34 | 22 ×10⁻⁶ cm/s
COC(Cn1cnc2c(c(-c3ccccc3)c(-c3ccccc3)n2CCc2ccccc2)c1=N)OC | 236 ×10⁻⁶ cm/s
NC(=O)[C@@H]1C[C@]2(NC(=O)NC2=O)c2cc(F)ccc2O1 | < 1 ×10⁻⁶ cm/s
O=C(O)C1CN(Cc2ccc(-c3nc4cc(Cc5ccccc5F)ccc4s3)c(F)c2)C1 | > 300 ×10⁻⁶ cm/s
O=C(Nc1ccc2[nH]c(=O)oc2c1)C(=O)N1CCC(Cc2ccc(F)cc2)CC1 | 207 ×10⁻⁶ cm/s
C/C(=C(\CCOC(=O)C(C)C)SS/C(CCOC(=O)C(C)C)=C(/C)N(C=O)Cc1cnc(C)nc1N)N(C=O)Cc1cnc(C)nc1N | 3 ×10⁻⁶ cm/s
O=C1C[C@@]2(C(=O)N1)C(=O)N(Cc1ccc(Br)cc1F)C(=O)c1cccn12 | 21 ×10⁻⁶ cm/s
COc1ccc(Cn2c(-c3ccccc3)c(-c3ccccc3)c3c(=N)n(CCCCO)cnc32)cc1 | 279 ×10⁻⁶ cm/s
C[C@H]([C@@H](O)c1ccccc1)n1cnc2c(c(-c3ccccc3)c(-c3ccccc3)n2Cc2ccccc2)c1=N | 3 ×10⁻⁶ cm/s
CCCCCCCCc1ccc(CCC(N)(CO)CO)cc1 | < 1 ×10⁻⁶ cm/s
Cc1[nH]c(/C=C2\C(=O)Nc3ccc(F)cc32)c(C)c1C(=O)NC[C@H](O)CN1CCOCC1 | 42 ×10⁻⁶ cm/s
Nc1nc2c(s1)CCN(Cc1ccc(Cl)cc1)CC2 | 127 ×10⁻⁶ cm/s
CC(=O)OCC1=C(C(=O)O)N2C(=O)C(NC(=O)CCCC(N)C(=O)O)C2SC1 (centres undefined) | 2 ×10⁻⁶ cm/s
N[C@@H](COC(c1cccc(F)c1)c1ccccc1OCc1ccccc1)C(=O)O (some centres undefined) | < 1 ×10⁻⁶ cm/s
O=C(N[C@H]1CCS[C@H]2CCC[C@@H](C(=O)O)N2C1=O)[C@@H](S)Cc1ccccc1 | < 1 ×10⁻⁶ cm/s
CNS(=O)(=O)Cc1ccc2[nH]cc(CCN(C)C)c2c1 | < 1 ×10⁻⁶ cm/s
CCN1CCN(C(=O)c2ccc3c(c2)N(Cc2cc(C)ccc2C)C(=O)c2ccccc2S3(=O)=O)CC1 | 63 ×10⁻⁶ cm/s
Cc1cc(CNC(=O)c2ccc3c(c2)n(CC2CC2)c(=O)n3C2CCCCC2)on1 | > 300 ×10⁻⁶ cm/s
O=C1CCc2ccc(OCCCCN3CCN(c4cccc(Cl)c4Cl)CC3)cc2N1 | 19 ×10⁻⁶ cm/s
CC(=O)OC[C@@H]1O[C@@H](n2ccc(=O)[nH]c2=O)[C@H](OC(C)=O)[C@H]1OC(C)=O | < 1 ×10⁻⁶ cm/s
